In patent US20020147136A1, “Compounds for targeting endothelial cells, compositions containing the same and methods for their use” (priority 2000, published 2002):
Residues, ends and D or L forms follow the SMILES beside them.

Columns and labels:
[1] = tested on: Rabbit aortic endothelial cells (RAEC); test: Microbubble binding to RAEC in static culture; type: cell-based; details: free TKPPR 100 μM; 5% bubbles (Composition I of Example 5)
Description: Rabbit aortic endothelial cells (RAEC) from Biowhittaker (Cat No. AC-7018, lot 9CC086 from a custom isolation) were obtained frozen on dry ice and stored in liquid nitrogen until thawing. RAEC were cultured and used in bubble binding assays exactly as HAEC (described above), except that EGM2-MV medium (Biowhittaker Cat No. CC-3202) was substituted for EGM-MV.

HAEC = test: Inhibition of TKPPR-bubble binding to HAEC in static culture by competing agents; type: cell-based, human; details: for inhibition of bubble binding: 10 μM free TKPPR; for Bubbles Bound (average of duplicate): 1% BRU-114 bubbles
Description: Vials of the compositions of example 5 and of example 6 may be reconstituted with 5 mL of sterile saline, injected using a 20-guage 1.5 inch needle. Bubbles may be then formed within the vials by shaking by hand vigorously for 30 seconds. 1 to 5 mL of the bubble formulation may be removed from each vial and diluted with 3 volumes of D-PBS (without calcium or magnesium) within 1 hour of use.
Chamber slides containing confluent HAEC may be drained of culture medium, which was immediately replaced with one of the final bubble solutions prepared above. The wells may be slightly overfilled such that the liquid meniscus protrudes slightly above the plastic well-forming scaffold of the slide. Bubble solutions may be only added to alternate wells to minimize liquid cross-talk. The wells may be sealed with a piece of Parafilm and the slide incubated 20 minutes, inverted (according to Klibanov A. L., Advanced drug Delivery Reviews, 37, 1999, 139-157) to allow the bubbles to rise and make contact with the cells, after which the solutions may be poured off. Weakly associated bubbles may be removed by washing each well twice with 0.5 mL of D-PBS, swirling gently each time before pouring off. Additional D-PBS (0.5 mL) may be added to wells after the washes to keep the cells submerged until microscopic evaluation.
Composition I of Example 5 was repeated exactly as described except that 0.5 mg DPPE-GTKPPR was added (instead of 2.5 mg) yielding compositions with 1% DPPE-GTKPPR. Vials of this composition as well as that of composition I ofExample 5 (5% DPPE-GTKPPR) were reconstituted with 5 mL of sterile saline, injected using a 20-guage 1.5 inch needle. Bubbles were then formed within the vials by shaking by hand vigorously for 30 seconds. 1 to 5 mL of the bubble formulation was removed from each vial and diluted with 3 volumes of D-PBS (without calcium or magnesium) within 1 hour of use.
Chamber slides containing confluent HAEC were drained of culture medium, which was immediately replaced with one of the final bubble solutions prepared above. The wells were slightly overfilled such that the liquid meniscus protruded slightly above the plastic well-forming scaffold of the slide. Bubble solutions were only added to alternate wells to minimize liquid cross-talk. The wells were sealed with a piece of Parafilm and the slide was incubated 20 minutes, inverted to allow the bubbles to rise and make contact with the cells, after which the solutions were poured off. Weakly associated bubbles were removed by washing each well twice with 0.5 mL of D-PBS, swirling gently each time pouring off. Additional D-PBS (0.5 mL) was added to wells after the washes to keep the cells submerged until microscopic evaluation.
Assays were performed as described for Example 7 using microbubble compositions containing 2% BRU-114 (Composition I of Example 5) as a % of total phospholipid in the composition.
Compositions were reconstituted and assays were performed as described in Example 7 using microbubble compositions containing 1% BRU-114 (Composition I of Example 5) as a % of total phospholipid in the composition.
Assays were performed as described for Example 7 using microbubble compositions containing 2% BRU-114 (as a % of total phospholipid in the composition).

NP-1/Fc = test: Inhibition of 125I-VEGF165 binding to NP-1/Fc; details: 250 pM 125I-VEGF165, 4° C., 2 hours
Description: The ability of various compositions comprising TKPPR monomers or multimers to inhibit ^125I-VEGF binding to NP-1 was evaluated using NP-1/Fc. Competitive binding assays with microtiter plates coated with NP-1/Fc (R&D sytems) were performed using ^125I-VEGF165 as radioligand (Amersham Pharmacia Biotech Cat. No. IM274, Specific Activity: 1000-2500 Ci/mmol). […] Plates (Nunc MaxiSorp white opaque Microtiter plate [C-bottom, 437796]) were coated by incubating the wells with 75 µl of a solution containing 3 μlg/mL NP-1/Fc in D-PBS/0.1% NaAzide overnight at 4° C. after covering with sealing tape (Dynex, VWR Cat. No. 62402-931). […] All points were derived from triplicate wells, and for each set of replicates in NP-1/Fc-coated wells, a companion set in the absence of the receptor was included. For competitive binding, a series of unlabelled competitor concentrations were prepared in a 250 pM solution of ^1251-VEGF165 in assay buffer Solutions were added to 1.2 ml polypropylene tubes conforming to the microtiter format (Costar Cat. No. 29442-602), and transferred from these tubes to microtiter wells, without further dilution, using a multichannel pipettor. After addition of the appropriate solutions, microtiter plates were incubated at 4° C. for 2 hours. […] The plates were blotted dry and 25 μl deionized water and 100 μl scintillation fluid (Optiphase SuperMix, Wallac) were added to each well. Plates were agitated using a Plate Shaker (Hyperion, Cat. No. 4030-100F) for 3-5 minutes and were then counted using a Microplate Scintillation Counter (Wallac Microbeta Trilux) A set of serially diluted 125I-VEGF165 standard wells ranging from 200 to 0.04 pM were included with each experiment to aid in quantification of the amount of radiolabel bound.

Compound: CC(O)C(N)C(=O)NC(CCCCN)C(=O)N1CCCC1C(=O)N1CCCC1C(=O)NC(CCCNC(=N)N)C(=O)O [TKPPR, L-Arginine, L-threonyl-L-lysyl-L-prolyl-L-prolyl] (H-TKPPR-OH; configuration not given here)
- RAEC bubbles bound [1]: 21
- inhibition of bubble binding (HAEC; 1% composition bubbles): 82.7%
- inhibition of bubble binding (HAEC; 5% composition bubbles): no inhibition
- block of bubble association with HAEC (HAEC; Example 7, 10 to 100 μM free TKPPR peptide): blocked
- Bubbles Bound (average of duplicate) (HAEC; competitor 5 microM): 790
- Bubbles Bound (average of duplicate) (HAEC; competitor 10 microM): 528
- Bubbles Bound (average of duplicate) (HAEC; competitor 25 microM): 106
- Bubbles Bound % of control binding (HAEC; competitor 25 microM, 2% BRU-114 bubbles): 16%
- Bubbles Bound (average of duplicate) (HAEC; competitor 50 microM): 56
- Bubbles Bound (average of duplicate) (HAEC; competitor 100 microM): 17
- Average % Inhibition of bubble binding (HAEC; free TKPPR 5 μM, 1% composition bubbles): 45.7%
- Average % Inhibition of bubble binding (HAEC; free TKPPR 10 μM, 1% composition bubbles): 79.6%
- Average % Inhibition of bubble binding (HAEC; free TKPPR 25 μM, 1% composition bubbles): 82.0%
- Average % Inhibition of bubble binding (HAEC; free TKPPR 50 μM, 1% composition bubbles): 92.7%
- Average % Inhibition of bubble binding (HAEC; free TKPPR 100 μM, 1% composition bubbles): 93.7%
- HAEC bubbles bound (HAEC; free TKPPR 100 μM, 5% bubbles (Composition I of Example 5)): 58
- IC50 (NP-1/Fc): 43 µM
